# Test results taken from patent US20180271873A1, “METHODS FOR TREATING VIRAL INFECTIONS” (priority 2015, published 2018).
# System: GFP-expressing Zaire Ebolavirus Mayinga-GFP
# Assay: microbe, parasite or virus in culture
# Assay type: cell-based
# Details: HeLa, read-out: Activity (Biological activity, EC50)
row,Structure (SMILES),EC50 [µM]
1,"Cc1cccc(/C=N/Nc2cc(N3CCOCC3)nc(OCc3ncccn3)n2)c1 [Compound 5, (E)-4-(6-(2-(3-Methylbenzylidene)hydrazinyl)-2-(pyrimidin-2-ylmethoxy)pyrimidin-4-yl)morpholine]",< 1
2,"Cc1ccccc1/C=N/Nc1cc(N2CCOCC2)nc(OCCc2ccccn2)n1 [Compound 10, (E)-4-(6-(2-(2-Methylbenzylidene)hydrazinyl)-2-(2-(pyridin-2-yl)ethoxy)pyrimidin-4-yl)morpholine]",< 1
3,"Cc1cccc(/C=N/Nc2cc(N3CCOCC3)nc(OCCc3ccccn3)n2)c1 [Compound 11, (E)-4-(6-(2-(3-Methylbenzylidene)hydrazinyl)-2-(2-(pyridin-2-yl)ethoxy)pyrimidin-4-yl)morpholine]",< 1
4,"C(=N\Nc1cc(N2CCOCC2)nc(OCCc2ccccn2)n1)/c1cncnc1 [Compound 12, (E)-4-(2-(2-(Pyridin-2-yl)ethoxy)-6-(2-(pyrimidin-5-ylmethylene)hydrazinyl)pyrimidin-4-yl)morpholine]",> 50
5,"Cc1cccc(/C=N/Nc2cc(N3CCOCC3)nc(OCC(C)c3ccccn3)n2)c1 (centres unmarked) [Compound 13, (E)-4-(6-(2-(3-Methylbenzylidene)hydrazinyl)-2-(2-(pyridin-2-yl)propoxy)pyrimidin-4-yl)morpholine]",< 1
6,"Cc1cccc(/C=N/Nc2cc(N3CCOCC3)nc(OCCCc3ccccn3)n2)c1 [Compound 14, (E)-4-(6-(2-(3-Methylbenzylidene)hydrazinyl)-2-(3-(pyridin-2-yl)propoxy)pyrimidin-4-yl)morpholine]",< 1
7,"Cc1cccc(/C=N/Nc2cc(N3CCOCC3)nc(Oc3ccc4cccnc4c3)n2)c1 [Compound 15, (E)-4-(6-(2-(3-Methylbenzylidene)hydrazinyl)-2-(quinolin-7-yloxy)pyrimidin-4-yl)morpholine]",< 1
8,Cc1cccc(/C=N/Nc2cc(N3CCS(=O)(=O)CC3)nc(OCCc3ccccn3)n2)c1 [Compound 16],> 50
9,"C(=N\Nc1cc(N2CCOCC2)nc(OCCc2ccccn2)n1)/c1ccncc1 [Compound 17, (E)-4-(2-(2-(Pyridin-2-yl)ethoxy)-6-(2-(pyridin-4-ylmethylene)hydrazinyl)pyrimidin-4-yl)morpholine]",> 50
10,"Cc1cccc(/C=N/Nc2cc(N3CCOCC3)nc(NCc3ccccn3)n2)c1 [Compound 18, (E)-4-(2-(3-Methylbenzylidene)hydrazinyl)-6-morpholino-N-(pyridin-2-ylmethyl)pyrimidin-2-amine]",< 1
11,"Cc1cc(/C=N/Nc2cc(N3CCOCC3)nc(OCCc3ccccn3)n2)ccn1 [Compound 19, (E)-4-(6-(2-((2-Methylpyridin-4-yl)methylene)hydrazinyl)-2-(2-(pyridin-2-yl)ethoxy)pyrimidin-4-yl)morpholine]",> 50
12,"Cc1cccc(/C=N/Nc2cc(N3CCOCC3)nc(OCCc3ccccc3)n2)c1 [Compound 20, (E)-4-(6-(2-(3-Methylbenzylidene)hydrazinyl)-2-phenethoxypyrimidin-4-yl)morpholine]",1 to 50
13,"Cc1cccc(/C=N/Nc2cc(N3CCCCC3)nc(OCCc3ccccn3)n2)c1 [Compound 21, (E)-4-(2-(3-Methylbenzylidene)hydrazinyl)-6-(piperidin-1-yl)-2-(2-(pyridin-2-yl)ethoxy)pyrimidine]",> 50
14,"Cc1cccc(/C=N/Nc2cc(N3CC(C)OC(C)C3)nc(OCCc3ccccn3)n2)c1 (centres unmarked) [Compound 22, (E)-2,6-Dimethyl-4-(6-(2-(3-methylbenzylidene)hydrazinyl)-2-(2-(pyridin-2-yl)ethoxy)pyrimidin-4-yl)morpholine]",1 to 50
15,"Cc1cccc(/C=N/Nc2cc(N3CCOCC3)nc(OCCc3ncccn3)n2)c1 [Compound 23, (E)-4-(6-(2-(3-Methylbenzylidene)hydrazinyl)-2-(2-(pyrimidin-2-yl)ethoxy)pyrimidin-4-yl)morpholine]",< 1
16,"CCCN(CCC)c1cc(N/N=C/c2cccc(C)c2)nc(OCCc2ncccn2)n1 [Compound 24, (E)-6-(2-(3-Methylbenzylidene)hydrazinyl)-N,N-dipropyl-2-(2-(pyrimidin-2-yl)ethoxy)pyrimidin-4-amine]",> 50
17,"Cc1cccc(/C=N/Nc2cc(N3CCOCC3)nc(Oc3ccccn3)n2)c1 [Compound 25, (E)-4-(6-(2-(3-Methylbenzylidene)hydrazinyl)-2-(pyridin-2-yloxy)pyrimidin-4-yl)morpholine]",< 1
18,"Cc1cccc(/C=N/Nc2cc(N3CCSCC3)nc(OCCc3ccccn3)n2)c1 [Compound 26, (E)-4-(6-(2-(3-Methylbenzylidene)hydrazinyl)-2-(2-(pyridin-2-yl)ethoxy)pyrimidin-4-yl)thiomorpholine]",1 to 50
19,"Cc1cccc(/C=N/Nc2cc(N3CCOCC3)nc(-c3cccc(O)c3)n2)c1 [Compound 27, (E)-3-(4-(2-(3-Methylbenzylidene)hydrazinyl)-6-morpholinopyrimidin-2-yl)phenol]",1 to 50

row,Structure (SMILES),EC50 [µM]
1,"Cc1cccc(/C=N/Nc2cc(N3CCOCC3)nc(OC(C)Cc3ccccn3)n2)c1 (centres unmarked) [Compound 28, (E)-4-(6-(2-(3-Methylbenzylidene)hydrazinyl)-2-(1-(pyridin-2-yl)propan-2-yloxy)pyrimidin-4-yl)morpholine]",< 1
2,"Cc1cccc(/C=N/Nc2cc(N3CCOCC3)nc(OCCc3ccncn3)n2)c1 [Compound 29, (E)-4-(6-(2-(3-Methylbenzylidene)hydrazinyl)-2-(2-(pyrimidin-4-yl)ethoxy)pyrimidin-4-yl)morpholine]",1 to 50
3,"Cc1cccc(/C=N/Nc2cc(N3CCOCC3)nc(-c3cccc(-c4ccccn4)c3)n2)c1 [Compound 30, (E)-4-(6-(2-(3-Methylbenzylidene)hydrazinyl)-2-(3-(pyridin-2-yl)phenyl)pyrimidin-4-yl)morpholine]",1 to 50
4,"COc1c(N/N=C/c2cccc(C)c2)nc(OCCc2ccccn2)nc1N1CCOCC1 [Compound 31, (E)-4-(5-Methoxy-6-(2-(3-methylbenzylidene)hydrazinyl)-2-(2-(pyridin-2-yl)ethoxy)pyrimidin-4-yl)morpholine]",1 to 50
5,"Cc1cccc(/C=N/Nc2nc(OCCc3ccccn3)nc(N3CCOCC3)c2C)c1 [Compound 32, (E)-4-(5-Methyl-6-(2-(3-methylbenzylidene)hydrazinyl)-2-(2-(pyridin-2-yl)ethoxy)pyrimidin-4-yl)morpholine]",1 to 50
6,"FC(F)(F)c1cccc(/C=N/Nc2cc(N3CCOCC3)nc(OCCc3ccccn3)n2)c1 [Compound 33, (E)-4-(2-(2-(Pyridin-2-yl)ethoxy)-6-(2-(3-(trifluoromethyl)benzylidene)hydrazinyl)pyrimidin-4-yl)morpholine]",< 1
7,"C/C(=N\Nc1cc(N2CCOCC2)nc(OCCc2ccccn2)n1)c1cccc(C)c1 [Compound 34, (E)-4-(2-(2-(Pyridin-2-yl)ethoxy)-6-(2-(1-m-tolylethylidene)hydrazinyl)pyrimidin-4-yl)morpholine]",< 1
8,"Cc1cccc(/C=N/Nc2cc(N3CCCOCC3)nc(OCCc3ccccn3)n2)c1 [Compound 35, (E)-4-(6-(2-(3-Methylbenzylidene)hydrazinyl)-2-(2-(pyridin-2-yl)ethoxy)pyrimidin-4-yl)-1,4-oxazepane]",1 to 50
9,"Cc1cccc(/C=N/Nc2cc(N3CCOCC3)nc(OCC(C)(C)c3ccccc3)n2)c1 [Compound 36, (E)-4-(2-(2-Methyl-2-phenylpropoxy)-6-(2-(3-methylbenzylidene)hydrazinyl)pyrimidin-4-yl)morpholine]",1 to 50
10,"Cc1cccc(/C=N/N(C)c2cc(N3CCOCC3)nc(OCCc3ccccn3)n2)c1 [Compound 37, (E)-4-(6-(1-Methyl-2-(3-methylbenzylidene)hydrazinyl)-2-(2-(pyridin-2-yl)ethoxy)pyrimidin-4-yl)morpholine]",1 to 50
11,"Cc1cccc(/C=N/Nc2nc(OCCc3ccccn3)nc(N3CCOCC3)c2C#N)c1 [Compound 38, (E)-4-(2-(3-Methylbenzylidene)hydrazinyl)-6-morpholino-2-(2-(pyridin-2-yl)ethoxy)pyrimidine-5-carbonitrile]",> 50
12,"Cc1cccc(/C=N/Nc2nc(OCCc3ccccn3)nc(N3CCOCC3)c2Cl)c1 [Compound 39, (E)-4-(5-Chloro-6-(2-(3-methylbenzylidene)hydrazinyl)-2-(2-(pyridin-2-yl)ethoxy)pyrimidin-4-yl)morpholine]",> 50
13,"Cc1cccc(/C=N/Nc2nc(OCCc3ccccn3)nc(N3CCOCC3)c2F)c1 [Compound 40, (E)-4-(5-Fluoro-6-(2-(3-methylbenzylidene)hydrazinyl)-2-(2-(pyridin-2-yl)ethoxy)pyrimidin-4-yl)morpholine]",> 50
14,"Cc1cccc(/C=N/Nc2cc(C3CCOCC3)nc(OCCc3ccccn3)n2)c1 [Compound 41, (E)-4-(2-(3-Methylbenzylidene)hydrazinyl)-2-(2-(pyridin-2-yl)ethoxy)-6-(tetrahydro-2H-pyran-4-yl)pyrimidine]",> 50
15,"Cc1cccc(/C=N/Nc2cc(N3CCN(C)CC3)nc(OCCc3ccccn3)n2)c1 [Compound 42, (E)-4-(2-(3-Methylbenzylidene)hydrazinyl)-6-(4-methylpiperazin-1-yl)-2-(2-(pyridin-2-yl)ethoxy)pyrimidine]",> 50
16,"Cc1cccc(/C=N/Nc2cc(N3CCOCC3)nc(OCCc3ccc(N)nc3)n2)c1 [Compound 43, (E)-5-(2-(4-(2-(3-Methylbenzylidene)hydrazinyl)-6-morpholinopyrimidin-2-yloxy)ethyl)pyridin-2-amine]",> 50
17,"Cc1cccc(/C=N/Nc2cc(N3CCOCC3)nc(OCCc3cnccn3)n2)c1 [Compound 44, (E)-4-(6-(2-(3-Methylbenzylidene)hydrazinyl)-2-(2-(pyrazin-2-yl)ethoxy)pyrimidin-4-yl)morpholine]",1 to 50
18,"Cc1cccc(/C=N/Nc2cc(N3CCOCC3)nc(OCC(F)(F)c3ccccc3)n2)c1 [Compound 45, (E)-4-(2-(2,2-Difluoro-2-phenylethoxy)-6-(2-(3-methylbenzylidene)hydrazinyl)pyrimidin-4-yl)morpholine]",1 to 50
19,"C(=N\Nc1cc(N2CCOCC2)nc(OCCc2ccccn2)n1)/c1ccccc1 [Compound 46, (E)-4-(6-(2-Benzylidenehydrazinyl)-2-(2-(pyridin-2-yl)ethoxy)pyrimidin-4-yl)morpholine]",1 to 50
